Assay [1] deals with OVX mice. Briefly: A2BR agonist BAY 60-6583 treatment of OVX animals. The format is in vivo.
The test system of assay [2] is primary mouse osteoprogenitor cells. Briefly: Adenosine-induced osteogenic differentiation in vitro. The following applies: adenosine 30 μg/ml, 7 or 14 days, no osteogenic-inducing factors. The format is cell-based. The source says:
Osteoprogenitor cells were isolated as previously described with modifications. All buffers were ice cold, unless otherwise indicated. Briefly, the femur, tibia, humerus, radius, and ulna of mice were harvested. BM was flushed out and discarded. The bone was collected and cut into 1-mm^3 chips in harvest buffer and then digested in digestion buffer containing growth media [α minimum essential medium (αMEM), fetal bovine serum (FBS) (10%, v/v), penicillin/streptomycin (10,000 U/ml; 1%, v/v)], and collagenase type 2 (1 mg/ml, w/v; Worthington Biochemical, Lakewood, N.J.) while shaking at 60 rpm on orbital shaker (catalog no. 51700-13, Cole-Parmer, Vernon Hills, Ill.) in humidified incubator (37° C., 5% CO2) for 1.5 hours. Digested bone chips were rinsed three times with growth media and transferred to two wells of six-well plate for culture. Media were […] days, and bone chips were further cultured for 3 days for cells to adhere and proliferate before passage. For the first passage, cells were treated with 0.25% trypsin-EDTA (Thermo Fisher Scientific) for 3 min, neutralized with growth media, detached with cell scraper, and subcultured along with bone chips. The procedure for subsequent passages were similar but without bone chips. All experiments were performed at three to four passages. […]

Assay [3] relates to mouse mononuclear cells undergoing osteoclast differentiation. Briefly: Osteoclast differentiation with adenosine in vitro. The format is cell-based. The following applies: adenosine 30 μg/ml, 6 days of osteoclast differentiation. The protocol: All buffers used were ice cold, unless otherwise indicated. Briefly, the femur, tibia, humerus, radius, ulna, and vertebra were harvested and crushed with pestle and mortar in harvest buffer [phosphate-buffered solution (PBS) and FBS (2%, v/v)] to release BM tissue. BM was passed through a 70-μm cell strainer and centrifuged at 200 g for 5 min. Cells were resuspended in harvest buffer, gently layered onto Ficoll-Paque PLUS (GE Healthcare, Marlborough, Mass.) at 1:1 ratio, and centrifuged without rotor acceleration and deceleration at 200 g for 15 min. Afterward, the opaque middle layer with cells was collected, washed with harvest buffer, and centrifuged at 200 g for 5 min to yield a cell pellet. Isolated mononuclear cells were cultured in macrophage induction media, containing growth media, prostaglandin E2 (PGE2; 10^−7 M; Santa Cruz Biotechnology, Dallas, Tex.), and M-CSF (10 ng/ml; PeproTech, Rocky Hill, N.J.) at 100,000 cells/cm^2. For osteoclast differentiation, macrophages cultured for 3 days were further induced in osteoclast induction media containing growth media, PGE2 (10^−7 M), M-CSF (10 ng/ml), and RANKL (10 ng/ml; PeproTech). […]

The subject of assay [4] is young and old mice bone marrow stromal cells. Briefly: Alizarin Red S deposition, bone marrow stromal cells with adenosine. It counts as cell-based, mouse. The protocol: Alizarin Red S, an anthraquinone derivative, may be used to identify calcium in tissue sections. […] Calcium forms an Alizarin Red S-calcium complex in a chelation process, and the end product is birefringent. […]
• Aspirate medium from cell dish (P1 cells). • Rinse with sterile PBS, aspirate. • Add 5 mL trypsin (T75 flask), incubate for 4 min at 37 C. • Add 5 mL GM to stop. • Use cell scraper to further release cells. • Transfer to tube, use additional 5 mL GM to rinse the dish and transfer. • Spin down at 1200 rpm for 4 min. • Resuspend cells, seed into culture plate at 20,000 cells/cm^2. • 2 mL/well in 6-well • 0.5 mL/well in 24-well • Freeze the rest cells in freezing medium. • 10% DMSO • 90% GM • Prepare GM-ADO (60 ug/mL) fresh: • 18 mL GM • 180 uL ADO stock (6 mg/mL) • Refresh medium daily for two weeks with the culture conditions: • GM • GM-ADO • OM (positive control) • In the third week, use phosphate supplementation: • GM+ADO +3 mM phosphate • GM+3 mM phosphate • OM (positive control) • Alizarin red S staining at 14 d and 21 d • Wash cells gently with PBS. • Fix with 4% PFA for 15 min. […] Discard milliQ water. • Alizarin red S quantification • Add 500 ul of HCl (0.5M) to each well for 10 min. at room temp with gentle shaking. • Transfer HCl solution in each well into one 1.5 ml microcentrifuge tube. […]

In the case of `N#Cc1c(N)nc(SCC(N)=O)c(C#N)c1-c1ccc(OCC2CC2)cc1` [BAY 60-6583], the “bone tissue, H&E staining” value in assay [1] (1 mg/kg intraperitoneally every 2 days, 8 weeks) is given as “attenuation of bone loss”. Further, in assay [1] (8 weeks), the “OVX changes of vertebra BMD, BV/TV, Tb.N, Tb.Sp by microCT” value is listed as “attenuated” and the “femur bone volume (BV/TV) by microCT” value was “bone loss was diminished”. Moreover, the “mineral apposition rate and bone formation rate” value in assay [1] (8 weeks, bone labeling) is “abrogation of the bone loss”. The “maximum load and stiffness of tibia” value in assay [1] (8 weeks, compared to the corresponding controls) is “improved”. The “TRAP-positive cells on the bone surface” value in assay [1] (8 weeks, compared to the vehicle control) is “decreased number”. In addition, the “CD73 and CD39 expression levels, immunofluorescence” value in assay [1] (vehicle- vs BAY 60-6583-treated groups) is “no significant differences”.
For the compound `Nc1ncnc2c1ncn2[C@@H]1O[C@H](CO)[C@@H](O)[C@H]1O` [adenosine], the “expression of osterix (OSX) and osteopontin (OPN)” value in assay [2] is recorded as “up-regulation”. Besides, the “expression of Nfatc1, ACP5 and CTSK” value in assay [3] is given as “reduced expression”. Also, the “fold change of alizarin red S deposition, ADO compared to GM” value in assay [4] (female) was “larger fold change”. Further, the “osteogenic differentiation, alizarin red S deposition” value in assay [4] (young and aged cells from either sex, 2D culture, ADO 60 ug/mL) is on record as “induced osteogenic differentiation”.
